Measured values: patent US9663764B2, “Generation of cardiomyocytes from human pluripotent stem cells” (Wisconsin Alumni Research Foundation, priority 2011, dated 2017)

Assays:
Format in all cases: cell-based, human
[1] = tested on: Smad1/5 and Smad2 phosphorylation in 19-9-11 ishcat cells; assay: Smad1/5 and Smad2 phosphorylation, western blot; details: 12 μM CH treatment
Method: Western Blot Analysis: Cells were lysed in M-PER Mammalian Protein Extraction Reagent (Pierce) in the presence of Halt Protease and Phosphatase Inhibitor Cocktail (Pierce). Proteins were separated by 10% Tris-Glycine SDS/PAGE (Invitrogen) under denaturing conditions and transferred to a nitrocellulose membrane. After blocking with 5% milk in TBST, the membrane was incubated with primary antibody overnight at 4° C. The membrane was then washed, incubated with an anti-mouse/rabbit peroxidase-conjugated secondary antibody (1:1000, Cell Signaling) at room temperature for 1 hr, and developed by SuperSignal chemiluminescence (Pierce).
To determine whether canonical Wnt signaling requires TGFβ superfamily signaling to induce cardiogenesis, the inventors quantified cTnT+ cell generation in 19-9-11 ishcat-2 cells when Activin A and BMP4 signaling antagonists were presented during the first 24 hr of cardiomyocyte induction with 12 μM CH. All samples were treated with dox at 48 hours. […] To further investigate the role of TGFβ superfamily signaling in Wnt pathway-mediated cardiogenesis the inventors assessed Smad1/5 and Smad2 phosphorylation, downstream of BMP4 and Activin A signaling respectively. As expected, substantial Smad1/5 and Smad2 phosphorylation was detected in cells that had been treated with Activin A and BMP4 (FIGS. 9B and 10A).

19-9-11 iPSCs = assay: Cardiac directed differentiation via small molecules on Matrigel, cTnT/MF20 flow cytometry; details: 12 μM CH treatment alone, after 15 days
Method: (§1) cardiac directed differentiation via small molecules: Cells were dissociated and plated as described in the Activin/BMP4 protocol. When hPS cells maintained on Matrigel® or Synthemax plates achieved confluence, cells were treated with CH in RPMI/B27-insulin for 24 hr (day 0 to day 1). The medium was changed to RPMI/B27-insulin, followed by 2 μg/ml dox treatment at different times between day 1 and day 5 for transgenic cell lines. For genetically unmodified lines, 5 μM IWP2 (Tocris) or IWP4 (Stemgent) was added at day 3 and removed during the day 5 medium change. Cells were maintained in the RPMI/B27 starting from day 7, with the medium changed every 3 days.
(§2) Flow Cytometry: Cells were dissociated into single cells and then fixed with 1% paraformaldehyde for 20 min at room temperature and stained with primary and secondary antibodies in PBS plus 0.1% Triton X-100 and 0.5% BSA. For the cell proliferation assay, a 17-hour pulse of BrdU was performed to identify dividing cardiomyocytes (Zhang et al., Circ. Res. 104, e30-41 (2009)). Data were collected on a FACSCaliber flow cytometer (Beckton Dickinson) and analyzed using FlowJo.
While shRNA inhibition of β-catenin provides specific and facile temporal regulation of canonical Wnt signaling, this method requires genetic modification of the hPS cell line which limits its potential clinical utility. The inventors next used the mechanistic insight these modified lines provided regarding the sufficiency of canonical Wnt signaling in cardiomyogenesis to develop a completely defined, growth factor free method of efficiently generating cardiomyocytes from unmodified hPS cell lines using small molecules. First, 19-9-11 iPSCs were maintained in mTeSR1 on Matrigel® for five days, and then the medium was switched to RPMI/B27-insulin containing 12 μM CH. IWP4 and IWP2, which prevent palmitylation of Wnt proteins by porcupine thereby blocking Wnt protein secretion and activity (Chen et al., Nat. Chem. Biol. 5:100-107 (2009)), were used to inhibit Wnt signaling. […] Similar to results obtained with the 19-9-11 ishcat-1 cell line, CH treatment of 19-9-11 cells alone only generated 16% cTNT+ or MF20+ cells after 15 days, while adding 5 μM IWP4 or IWP2 at day 3 increased this to 87% cTNT+ or MF20+ cells. […] In order to achieve fully defined culture conditions, Matrigel® was replaced with a defined peptide acrylate surface (Synthemax) during both hPS cell expansion and differentiation. […] Thus, optimization of canonical WNT signaling via stage-specific addition of small molecule agonists and antagonists produces high yields of functional cardiomyocytes in a completely defined, growth factor free culture system.

[2] = tested on: 19-9-11 and IMR90C4 iPSCs; assay: Cardiac directed differentiation via small molecules on Synthemax plates, cTnT/MF20 flow cytometry; details: 12 μM CH at day 0 and 5 μM IWP4 at day 3, day 15
Method: as §1, §2
While shRNA inhibition of β-catenin provides specific and facile temporal regulation of canonical Wnt signaling, this method requires genetic modification of the hPS cell line which limits its potential clinical utility. […]

[3] = tested on: 19-9-11 shcat-2 and scramble lines; assay: Nanog/Isl1 immunostaining of CH-treated 19-9-11 shcat-2 and scramble lines
Method: Immunostaining: Cells were fixed with 4% paraformaldehyde for 15 min at room temperature and then stained with primary and secondary antibodies in PBS plus 0.4% Triton X-100 and 5% non-fat dry milk (Bio-Rad). Nuclei were stained with Gold Anti-fade Reagent with DAPI (Invitrogen). An epifluorescence microscope (Leica DM IRB) with a QImaging® Retiga 4000R camera was used for imaging analysis. To test whether induction of cardiomyocyte differentiation by GSK3 inhibitors requires β-catenin, the inventors treated the shcat-2 and scramble 19-9-11 lines with CH in mTeSR1 medium. While the shcat-2 line maintained an undifferentiated morphology, the scramble line appeared to undergo differentiation (FIG. 2E), similar to non-transduced lines treated with CH (FIGS. 1B and 2B). Induction of differentiation following CH treatment in the scramble control was further indicated by diminished SOX2 and NANOG expression at day 4 (FIG. 3C). […] After 4 days of CH treatment in mTeSR1, the percentage of cells expressing Oct4 decreased to 61% in the scramble line, while 98% of the shcat-2 cells expressed Oct4 (FIG. 3D). […] To better understand early mesoderm induction via GSK3 inhibition, the inventors analyzed expression of the early mesoderm gene T in scramble and shcat-2 19-9-11 lines. As CH concentration increased, the ratio of T expression in scramble to the shcat-2 line increased (FIG. 3E). […]

What does the source list for Cc1c[nH]c(-c2cnc(NCCNc3ccc(C#N)cn3)nc2-c2ccc(Cl)cc2Cl)n1 [CH]?
Smad1/5 and Smad2 activation [1]: levels comparable to those induced by Activin A and BMP4; cTNT+ or MF20+ cells (19-9-11 iPSCs): 16%; cTNT+ or MF20+ cells [2]: approximately 85%; Nanog/Isl1 immunostaining ([3]; scramble cell line, 15 μM CH in mTeSR1 for 4 days): substantial numbers of Nanog−/Isl1+ cells; Nanog/Isl1 immunostaining ([3]; shcat-2 cells treated with CH): only Nanog+/Isl1− cells
